Data taken from paper PMC11963559, “Identification of novel thiazole derivatives as flaviviral protease inhibitors effective against Dengue (DENV2) and Japanese encephalitis viruses” (Antimicrobial Agents and Chemotherapy, 2025).

Biological target: T1, DENV2 NS2B–NS3 protease (Dengue virus type 2, UniProt P14340)
T1 construct: Activity of recombinant dengue 2 virus NS3 protease in the presence of a truncated NS2B co-factor; The N-terminal domain of NS3 contains a highly conserved protease-active core; made in house; host or cells: Escherichia coli BL21(DE3)
T1 sequence (P14340 1476-1653): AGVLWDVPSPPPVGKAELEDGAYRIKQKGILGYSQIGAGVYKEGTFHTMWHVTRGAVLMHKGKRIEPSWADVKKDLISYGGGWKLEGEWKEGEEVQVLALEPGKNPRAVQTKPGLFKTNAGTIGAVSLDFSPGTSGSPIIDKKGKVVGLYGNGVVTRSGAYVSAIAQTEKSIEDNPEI
T1 sequence (P14340 1398-1437): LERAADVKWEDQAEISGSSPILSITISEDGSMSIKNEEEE
Assay: In vitro DENV2 NS2B/NS3pro inhibition assay using a FRET substrate
Assay type: biochemical
Details: IC50 (µM), DENV protease inhibitory activity, 5 µM substrate, 10 nM NS2b-NS3pro, compounds at 1, 10 and 100 µM, 1 h at RT; compounds 3ao–3av
Protocol: To assess the anti-DENV NS2B–NS3 activity of the compounds, we expressed the DENV2 NS2B–NS3 protease in BL21DE3 cells and subsequently purified it using Ni-NTA affinity chromatography, as outlined in Materials and Methods ([39], [40]). The protease activity assay was performed using different concentrations (1, 2.5, 5, 10, 25, 50, 75, and 100 µM) of a fluorogenic substrate (Abs-Nle-Lys-Arg-Arg-Ser-3-(NO2)Tyr) at various time points (5, 15, 30, 45, and 60 min), as described previously ([39], [41]). […] Therefore, all subsequent assays were conducted with a 1 h incubation time.
The selected compounds were analyzed using in vitro protease assays performed in black 96-well plates. […] All assays were performed in triplicate. The release of free AMC was measured using a Varioskan LUX multimode microplate reader (Thermo Fisher Scientific) at excitation and emission wavelengths of 380 and 460 nm, respectively. Control fluorescence values obtained in the absence of inhibitors were considered 100%, and those obtained in the presence of inhibitors were calculated as the percentage of inhibition of the control using Microsoft Excel and plotted using Origin Pro 2023b. The background AMC in the absence of protease was subtracted before data analysis. Further, protease assay was done using different concentration of the compounds (1, 10, and 100 µM) to evaluate the IC50 for the in vitro assay. IC50 curves were fitted and determined by fitting the nonlinear equation in Origin2023b software. A similar approach was used to analyze the enzymatic kinetics of protease inhibition. The reaction progress was monitored by the release of free aminomethylcoumarin (AMC), as previously described. The substrate was incubated with or without the inhibitor in the aforementioned reaction buffer in the presence of varying concentrations of the substrate. The reactions were initiated by the addition of the NS2B–NS3 protease. Protease activity was monitored for 1 h based on the initial rate of increase in fluorescence intensity at 460 nm, with an excitation wavelength of 380 nm. The results were analyzed using Origin Pro 2023b and the Michaelis–Menten equation to obtain the apparent Michaelis–Menten constants and maximal velocities. All assays were performed in triplicate. For each tested compound, two different concentrations of the inhibitor (0, 10, and 25 µM) were used at various concentrations (0–250 μM) of the substrate. The mechanism of inhibition was determined by observing the deviations in the apparent Km and Vmax values.

COc1ccc(-c2csc(N/N=C(\C)c3ccc(O)cc3)n2)cc1 [3aq]
IC50: 15.1 µM

COc1ccc(-c2csc(N/N=C(\C)c3cc(O)cc(O)c3)n2)cc1 [3au]
IC50: 20.8 µM
